According to ChEMBL document CHEMBL2029284, “Synthesis and biological evaluation of ticagrelor derivatives as novel antiplatelet agents” (2012):
Active and inactive are the calls of the source. The calls are words filed in the database; no cut-off is given here.

Tested on: Rattus norvegicus
Assay: Antiplatelet activity in Sprague-Dawley rat assessed as ex-vivo inhibition of ADP-induced platelet aggregation at 5 mg/kg, po at 0.5 hrs by Born's method relative to vehicle-treated control
Assay type: functional

| SMILES | inhibition in vivo at 5 mg/kg [%] | inhibition |
| --- | --- | --- |
| CCCSc1nc(N[C@@H]2C[C@H]2c2ccc(F)c(F)c2)c2nnn([C@@H]3C[C@H](OC(=O)OCC)[C@@H](O)[C@H]3O)c2n1 | 42.5 |  |
| CCCSc1nc(N[C@@H]2C[C@H]2c2ccc(F)c(F)c2)c2nnn([C@@H]3C[C@H](OC(=O)CCC)[C@@H](O)[C@H]3O)c2n1 | 28.5 |  |
| CCCSc1nc(N[C@@H]2C[C@H]2c2ccc(F)c(F)c2)c2nnn([C@@H]3C[C@H](OC(=O)OCC(C)C)[C@@H](O)[C@H]3O)c2n1 | 13.2 |  |
| CCCSc1nc(N[C@@H]2C[C@H]2c2ccc(F)c(F)c2)c2nnn([C@@H]3C[C@H](OCCOC(=O)c4ccccc4)[C@@H](O)[C@H]3O)c2n1 |  | inactive |
| CCCSc1nc(N[C@@H]2C[C@H]2c2ccc(F)c(F)c2)c2nnn([C@@H]3C[C@H](OC(=O)CC)[C@@H](O)[C@H]3O)c2n1 | 44.5 |  |
| CCCSc1nc(N[C@@H]2C[C@H]2c2ccc(F)c(F)c2)c2nnn([C@@H]3C[C@H](O)[C@@H](O)[C@H]3O)c2n1 | 45.7 |  |
| CCCSc1nc(N[C@@H]2C[C@H]2c2ccc(F)c(F)c2)c2nnn([C@@H]3C[C@H](OCCOC(=O)OCC)[C@@H](O)[C@H]3O)c2n1 | 47.7 |  |
| CCCSc1nc(N[C@@H]2C[C@H]2c2ccc(F)c(F)c2)c2nnn([C@@H]3C[C@H](OCCO)[C@@H](O)[C@H]3O)c2n1 [TICAGRELOR] | 66.3 |  |
| CCCSc1nc(N[C@@H]2C[C@H]2c2ccc(F)c(F)c2)c2nnn([C@@H]3C[C@H](OC(=O)C(C)(C)C)[C@@H](O)[C@H]3O)c2n1 |  | inactive |
| CCCSc1nc(N[C@@H]2C[C@H]2c2ccc(F)c(F)c2)c2nnn([C@@H]3C[C@H](OCCOC(=O)c4cccnc4)[C@@H](O)[C@H]3O)c2n1 |  | inactive |
| CCCSc1nc(N[C@@H]2C[C@H]2c2ccc(F)c(F)c2)c2nnn([C@@H]3C[C@H](OCCOC(=O)CCC)[C@@H](O)[C@H]3O)c2n1 |  | inactive |
| CCCSc1nc(N[C@@H]2C[C@H]2c2ccc(F)c(F)c2)c2nnn([C@@H]3C[C@H](OC(=O)c4ccccc4)[C@@H](O)[C@H]3O)c2n1 | 20.1 |  |
| CCCSc1nc(N[C@@H]2C[C@H]2c2ccc(F)c(F)c2)c2nnn([C@@H]3C[C@H](OCCOC(=O)C(C)(C)C)[C@@H](O)[C@H]3O)c2n1 | 46.1 |  |
